The test system of data set [1] is rats. Nature of the data set: interaction with amphetamine (stereotypies in rats). The note with it: rats, i.p. The class given is in vivo. How it is done: (§1) The following text summarises a part of the results of the tests which were carried out with the products according to the invention, these products (unless otherwise stated) being administered intraperitoneally, in suspension in a gum solution (gum arabic), in a volume of 20 ml/kg in the case of mice and of 5 ml/kg in the case of rats.
30 minutes after the administration of CRL 40,373, amphetamine is injected intraperitoneally at a dose of 2 mg/kg.
Thirty minutes after the administration of CRL 40,385 the rats are given an intraperitoneal injection of 2 mg/kg of amphetamine (6 animals per dose).

The test system of data set [2] is mice. Description: spontaneous motility (actimeter). Format: in vivo. The note with it: mice. How it is done:
as §1
Thirty minutes after having been given CRL 40,373, the mice (6 per dose, 12 comparison animals) are placed in an actimeter, where their motility is recorded for half an hour.
Thirty minutes after having been given CRL 40,385, the mice are placed in actimeters where their motility is recorded for half an hour.

Data set [3] concerns mice. Nature of the data set: interaction with reserpine (hypothermia, ptosis). Format: in vivo. The note with it: i.p.
Data set [4] concerns mice. Nature of the data set: interaction with oxotremorine (temperature, trembling, peripheral cholinergic symptoms). Format: in vivo. The note with it: mice, i.p.
The test system of data set [5] is rats. Nature of the data set: interaction with apomorphine (stereotype behaviour in rats). The note with it: rats, i.p. The class given is in vivo. How it is done:
as §1
Batches of six rats are each given a subcutaneous injection of apomorphine (0.5 mg/kg) 30 minutes after the administration of CRL 40,373.
Batches of 6 rats are given a subcutaneous injection of 0.5 mg/kg of apomorphine 30 minutes after the administration of CRL 40,385.

In data set [6] the test system is mice. Nature of the data set: toxicity (isolated mice, intraperitoneal). Format: in vivo. How it is done: as §1
Data set [7] relates to mice. Description: inter-group aggressiveness (number of fights). To be noted: mice, i.p.; for aggressiveness: large/high dose. Format: in vivo. The procedure: as §1
After three weeks' residence in each of the halves of a cage divided by an opaque partition, the mice receive CRL 40,373 thirty minutes before being brought together by withdrawing the partition.
After 18 days' residence on either side of a partition separating their cage in the middle, groups of 3 mice receive CRL 40,385 and are brought together half an hour later by withdrawing the partition, and the number of fights which take place in the course of 15 minutes is noted.

The subject of data set [8] is mice. Description: motility reduced by habituation to a cage (residual motility). The class given is in vivo. To be noted: i.p. How it is done: as §1
Mice which have remained for 18 hours in the actimeters are given CRL 40,373. They are immediately replaced in their cages and, after a period of half an hour, their motility is recorded for 30 minutes (6 animals per dose, 12 comparison animals).
After remaining for 18 hours in the actimeters, the mice receive CRL 40,385. Immediately afterwards they are replaced in their cage and half an hour afterwards the recording of the motility starts and is continued for 30 minutes.

The test system of data set [9] is mice. Nature of the data set: motility reduced by hypoxia treatment (motor recovery). The class given is in vivo. To be noted: mice, i.p.
The subject of another data set is central nervous system. Description: psychopharmacological study / behaviour. Format: in vivo, mice.
Another data set relates to man. Description: clinical use in man. The class given is in vivo.
Data set [10] concerns mice. Nature of the data set: traction (motor incoordination). Format: in vivo, mice (EVIC CEBA strain). The note with it: high dose.
In data set [11] the test system is mice. Description: four-plate test. Format: in vivo, mice (EVIC CEBA strain). How it is done: as §1
The test is carried out on batches of 10 sensitive mice (EVIC CEBA strain), 30 minutes after the administration of CRL 40,373.
Batches of 10 mice are subjected to the test thirty minutes after having received CRL 40,385.

Each structure is given as a SMILES string.

In the case of `O=C(CNC(=O)C(c1ccccc1)c1ccccc1)NO` [CRL 40,400, α-(Benzhydrylcarboxamido)-acetohydroxamic acid], the amphetamine-induced stereotypies result in the data set with rats [1] was “does not modify the stereotypies induced in rats by apomorphine and amphetamine”. In the data set on mice [2], the motility result is on record as “acts on the motility of mice”. In the data set on mice [3], the “stereotypies induced by reserpine” value was “does not modify the stereotypies”. Further, in the data set on mice [4], the “stereotypies induced by oxotremorine” value is “does not modify the stereotypies”. In the data set with rats [5], the apomorphine-induced stereotypies entry is recorded as “does not modify the stereotypies induced in rats by apomorphine”. Also, the mortality entry in the data set on mice [6] (isolated mice, i.p., 128, 256, 512 and 1,024 mg/kg) is “does not cause any mortality whatsoever”.

With `O=C(CC(=O)N1c2ccccc2CCc2ccccc21)NO` [CRL 40,471, 5-(10,11-Dihydro-dibenz[b,f]azepino)-carbonylacetohydroxamic acid], the amphetamine-induced stereotypies entry with rats [1] is reported as “does not alter the stereotypies induced by amphetamine”. Moreover, in the data set on mice [2] (i.p., 512 mg/kg), the spontaneous motility entry is on record as “very greatly reduces the spontaneous motility of mice”. Also, the reserpine-induced hypothermia entry in the data set on mice [3] was “moderate antagonism against reserpine-induced hypothermia”. In the data set with mice [7], the inter-group aggressiveness result is on record as “an effect of the anti-aggressive type appears to manifest itself in the absence of any hypomotility” and the aggressiveness entry was “reduces the intra-specific aggressiveness in mice”. In the data set on mice [8], the “motility reduced by habituation to the cage” value is recorded as “does not cause a resumption of the motor activity in mice habituated to their cage”. In addition, in the data set on mice [9], the “motor recovery after hypoxia/anoxia by pressure reduction” value is recorded as “does not improve the motor recovery in mice”. Further, the “motor recovery after hypoxia/anoxia by pressure reduction” value with mice [9] (512 mg/kg) is recorded as “motor recovery comparable to that of the comparison mice”. Also, the apomorphine-induced stereotypies result in the data set with rats [5] was “does not alter the stereotypies induced by amphetamine and by apomorphine”. Moreover, the “psychopharmacological profile / conclusion” value with central nervous system (mouse, in vivo) was “sedative activity”. Further, the clinical result with man (tablet 0.250 mg, 2 tablets per day) is given as “good results clinically as a sedative”. Further, the “LD-O (maximum non-lethal dose)” value in the data set with mice [6] (mouse, in vivo, ip) is recorded as “greater than 1,024 mg/kg”.

For `COc1ccc(C[S+]([O-])CC(=O)NO)cc1` (stereo not drawn) [CRL 40,498, p-Methoxybenzyl-sulphinyl-acetohydroxamic acid], the spontaneous motility entry in the data set on mice [2] (high dose) is reported as “reduction in motility”. In the data set on mice [3], the reserpine-induced hypothermia result is recorded as “partial antagonism to reserpine-induced hypothermia” and the reserpine-induced ptosis entry was “without alteration of the ptosis”. For the same compound, the aggressiveness entry in the data set with mice [7] is on record as “reduction in motility, in aggressiveness”. Moreover, the motor incapacity result in the data set on mice [10] is on record as “without motor incapacity”. Besides, in the data set on mice [9], the “motor recovery after hypoxia/anoxia by pressure reduction” value is given as “a discrete stimulant effect on the motility”. In addition, the “temperature (oxotremorine-induced hypothermia)” value with mice [4] is on record as “without alteration of the other hypothermia studied”. In the data set on central nervous system (high dose), the “body temperature effect (product alone)” value is “hypothermia”. In addition, the “sedation / sedative effect” value with central nervous system (high dose(s)) is listed as “sedation”. Besides, the reactivity entry in the data set with central nervous system (mice, high dose) was “reduction in motility, in aggressiveness and in reactivity”. The clinical result in the data set on man (pill 100 mg, 2 pills per day) is “good results clinically as an anxiolytic agent”. Further, the “number of incorrect moves (four-plate test)” value in the data set on mice [11] (gastric administration, 512 to 32 mg/kg (and possibly less)) is on record as “an increase in the number of incorrect moves”. In addition, the “number of incorrect moves (four-plate test)” value in the data set on mice [11] (i.p., 512 to 2 mg/kg) is listed as “an increase in the number of incorrect moves”. In the data set with mice [6] (mice, i.p.), the “LD-O (maximum non-lethal dose)” value is reported as “greater than 1,204 mg/kg”. For the same compound, the symptoms / behaviour entry in the data set on mice [6] (mouse, in vivo, ip, 256 mg/kg) is “sedation, depressed respiration and reaction to the touch”.
